The supplement of paper PMC10883282

What was measured:
Assay in all cases: relative viability vs DMSO control (72 h) (fraction); higher = more viable cells
[1] = test system: HS729
How it was run: (§1)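 Plates held 72 h at 37 °C and 5% CO2 contained sarcoma cell lines seeded in 384-well format to reach 80–90% confluence, plus 2.5 µl of serially diluted compound added after 24 h. Source plate concentrations ran from 10 mM to 0.0002 mM, with 0.1% DMSO as vehicle and a 5 µM positive control. Percent growth from ATPLite readings, averaged over up to triplicate wells, gave relative viability. Values were rescaled with 1 as full and 0 as none.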

[2] = test system: HT1080
How it was run: as §1

[3] = test system: SW684
How it was run: as §1

[4] = test system: KHOS-NP
How it was run: as §1

[5] = test system: A204
How it was run: as §1

[6] = test system: VA-ES-BJ
How it was run: as §1

[7] = test system: SW982
How it was run: as §1

[8] = test system: SK-ES-1
How it was run: as §1

[9] = test system: SK-LMS-1
How it was run: as §1

[10] = test system: SW872
How it was run: as §1

[11] = test system: RD-ES
How it was run: as §1

[12] = test system: G401
How it was run: as §1

C[C@@H]1COC(Nc2ccc3ncnc(Nc4ccc(OCc5nccs5)c(Cl)c4)c3c2)=N1 [Varlitinib]
Settings | relative viability
[1], 0.00017 µM | 1.08
[1], 0.00051 µM | 1.05
[1], 0.00152 µM | 1.08
[1], 0.00457 µM | 1.06
[1], 0.01372 µM | 1.03
[1], 0.04115 µM | 1.05
[1], 0.1235 µM | 0.993
[1], 0.3704 µM | 0.994
[1], 1.111 µM | 0.9668
[1], 3.333 µM | 0.931
[1], 10 µM | 0.76
[2], 0.00017 µM | 1.06
[2], 0.00051 µM | 1.03
[2], 0.00152 µM | 1.05
[2], 0.00457 µM | 1.05
[2], 0.01372 µM | 1.04
[2], 0.04115 µM | 1.06
[2], 0.1235 µM | 1
[2], 0.3704 µM | 1.01
[2], 1.111 µM | 1.02
[2], 3.333 µM | 0.99
[2], 10 µM | 0.97
[3], 0.00017 µM | 1.01
[3], 0.00051 µM | 1.09
[3], 0.00152 µM | 1.07
[3], 0.00457 µM | 1.08
[3], 0.01372 µM | 1.08
[3], 0.04115 µM | 1.08
[3], 0.1235 µM | 1.063
[3], 0.3704 µM | 1.08
[3], 1.111 µM | 1.06
[3], 3.333 µM | 1.03
[3], 10 µM | 1.03
[4], 0.00017 µM | 1.03
[4], 0.00051 µM | 1.05
[4], 0.00152 µM | 1.06
[4], 0.00457 µM | 1.05
[4], 0.01372 µM | 1.06
[4], 0.04115 µM | 1.05
[4], 0.1235 µM | 1.07
[4], 0.3704 µM | 1.06
[4], 1.111 µM | 1.04
[4], 3.333 µM | 1.04
[4], 10 µM | 0.94
[5], 0.00017 µM | 1.06
[5], 0.00051 µM | 1.06
[5], 0.00152 µM | 1.07
[5], 0.00457 µM | 1.06
[5], 0.01372 µM | 1.08
[5], 0.04115 µM | 1.11
[5], 0.1235 µM | 1.06
[5], 0.3704 µM | 1.01
[5], 1.111 µM | 0.905
[5], 3.333 µM | 0.763
[5], 10 µM | 0.258
[6], 0.00017 µM | 1.06
[6], 0.00051 µM | 1.06
[6], 0.00152 µM | 1.05
[6], 0.00457 µM | 1.04
[6], 0.01372 µM | 1.08
[6], 0.04115 µM | 1.07
[6], 0.1235 µM | 1.12
[6], 0.3704 µM | 1.09
[6], 1.111 µM | 1.05
[6], 3.333 µM | 1.06
[6], 10 µM | 0.96
[7], 0.00017 µM | 0.982
[7], 0.00051 µM | 1.01
[7], 0.00152 µM | 0.966
[7], 0.00457 µM | 0.974
[7], 0.01372 µM | 0.986
[7], 0.04115 µM | 0.993
[7], 0.1235 µM | 0.984
[7], 0.3704 µM | 0.932
[7], 1.111 µM | 0.918
[7], 3.333 µM | 0.949
[7], 10 µM | 0.883
[8], 0.00017 µM | 0.975
[8], 0.00051 µM | 0.974
[8], 0.00152 µM | 0.976
[8], 0.00457 µM | 0.99
[8], 0.01372 µM | 0.971
[8], 0.04115 µM | 0.997
[8], 0.1235 µM | 0.967
[8], 0.3704 µM | 0.962
[8], 1.111 µM | 0.948
[8], 3.333 µM | 0.873
[8], 10 µM | 0.671
[9], 0.00017 µM | 1.01
[9], 0.00051 µM | 1.033
[9], 0.00152 µM | 1.06
[9], 0.00457 µM | 1
[9], 0.01372 µM | 1.02
[9], 0.04115 µM | 1.04
[9], 0.1235 µM | 1.04
[9], 0.3704 µM | 1.04
[9], 1.111 µM | 1.04
[9], 3.333 µM | 0.976
[9], 10 µM | 0.872
[10], 0.00017 µM | 1.09
[10], 0.00051 µM | 1.07
[10], 0.00152 µM | 1.1
[10], 0.00457 µM | 1.08
[10], 0.01372 µM | 1.065
[10], 0.04115 µM | 1.08
[10], 0.1235 µM | 1.05
[10], 0.3704 µM | 1.04
[10], 1.111 µM | 0.993
[10], 3.333 µM | 0.939
[10], 10 µM | 0.743
[11], 0.00017 µM | 0.968
[11], 0.00051 µM | 1.01
[11], 0.00152 µM | 0.957
[11], 0.00457 µM | 0.985
[11], 0.01372 µM | 0.975
[11], 0.04115 µM | 0.991
[11], 0.1235 µM | 1
[11], 0.3704 µM | 0.948
[11], 1.111 µM | 0.961
[11], 3.333 µM | 0.973
[11], 10 µM | 0.89
[12], 0.00017 µM | 0.96
[12], 0.00051 µM | 0.979
[12], 0.00152 µM | 0.993
[12], 0.00457 µM | 0.966
[12], 0.01372 µM | 0.981
[12], 0.04115 µM | 0.993
[12], 0.1235 µM | 0.973
[12], 0.3704 µM | 0.939
[12], 1.111 µM | 0.8904
[12], 3.333 µM | 0.8118
[12], 10 µM | 0.663

COc1cc2nccc(Oc3ccc(NC(=O)NC4CC4)c(Cl)c3)c2cc1C(N)=O [Lenvatinib]
Settings | relative viability
[1], 0.00017 µM | 1.01
[1], 0.00051 µM | 1.07
[1], 0.00152 µM | 1.04
[1], 0.00457 µM | 1.04
[1], 0.01372 µM | 1.016
[1], 0.04115 µM | 1.014
[1], 0.1235 µM | 0.945
[1], 0.3704 µM | 0.833
[1], 1.111 µM | 0.702
[1], 3.333 µM | 0.621
[1], 10 µM | 0.542
[2], 0.00017 µM | 1.07
[2], 0.00051 µM | 1.06
[2], 0.00152 µM | 1.08
[2], 0.00457 µM | 1.05
[2], 0.01372 µM | 1.08
[2], 0.04115 µM | 1.06
[2], 0.1235 µM | 1.06
[2], 0.3704 µM | 1.07
[2], 1.111 µM | 1.09
[2], 3.333 µM | 1.09
[2], 10 µM | 1.12
[3], 0.00017 µM | 1.13
[3], 0.00051 µM | 1.12
[3], 0.00152 µM | 1.14
[3], 0.00457 µM | 1.133
[3], 0.01372 µM | 1.13
[3], 0.04115 µM | 1.13
[3], 0.1235 µM | 1.11
[3], 0.3704 µM | 1.14
[3], 1.111 µM | 1.16
[3], 3.333 µM | 1.19
[3], 10 µM | 1.11
[4], 0.00017 µM | 1.07
[4], 0.00051 µM | 1.04
[4], 0.00152 µM | 1.05
[4], 0.00457 µM | 1.07
[4], 0.01372 µM | 1.08
[4], 0.04115 µM | 1.08
[4], 0.1235 µM | 1.06
[4], 0.3704 µM | 1.091
[4], 1.111 µM | 1.07
[4], 3.333 µM | 1.09
[4], 10 µM | 1.08
[5], 0.00017 µM | 1
[5], 0.00051 µM | 1.04
[5], 0.00152 µM | 1.03
[5], 0.00457 µM | 1.02
[5], 0.01372 µM | 0.79
[5], 0.04115 µM | 0.551
[5], 0.1235 µM | 0.406
[5], 0.3704 µM | 0.345
[5], 1.111 µM | 0.267
[5], 3.333 µM | 0.186
[5], 10 µM | 0.167
[6], 0.00017 µM | 1.07
[6], 0.00051 µM | 1.06
[6], 0.00152 µM | 1.08
[6], 0.00457 µM | 1.1
[6], 0.01372 µM | 1.12
[6], 0.04115 µM | 1.11
[6], 0.1235 µM | 1.13
[6], 0.3704 µM | 1.13
[6], 1.111 µM | 1.15
[6], 3.333 µM | 1.118
[6], 10 µM | 1.04
[7], 0.00017 µM | 1
[7], 0.00051 µM | 0.993
[7], 0.00152 µM | 0.998
[7], 0.00457 µM | 0.9857
[7], 0.01372 µM | 0.989
[7], 0.04115 µM | 0.99
[7], 0.1235 µM | 0.982
[7], 0.3704 µM | 0.968
[7], 1.111 µM | 0.947
[7], 3.333 µM | 0.926
[7], 10 µM | 0.8573
[8], 0.00017 µM | 0.985
[8], 0.00051 µM | 1.01
[8], 0.00152 µM | 0.9845
[8], 0.00457 µM | 0.958
[8], 0.01372 µM | 0.979
[8], 0.04115 µM | 0.938
[8], 0.1235 µM | 0.911
[8], 0.3704 µM | 0.881
[8], 1.111 µM | 0.791
[8], 3.333 µM | 0.689
[8], 10 µM | 0.593
[9], 0.00017 µM | 1.02
[9], 0.00051 µM | 1.01
[9], 0.00152 µM | 1.04
[9], 0.00457 µM | 1.05
[9], 0.01372 µM | 0.998
[9], 0.04115 µM | 1.04
[9], 0.1235 µM | 0.997
[9], 0.3704 µM | 1.04
[9], 1.111 µM | 0.98
[9], 3.333 µM | 0.953
[9], 10 µM | 0.972
[10], 0.00017 µM | 1.07
[10], 0.00051 µM | 1.1
[10], 0.00152 µM | 1.08
[10], 0.00457 µM | 1.07
[10], 0.01372 µM | 1.05
[10], 0.04115 µM | 1.05
[10], 0.1235 µM | 1.03
[10], 0.3704 µM | 1.05
[10], 1.111 µM | 1.06
[10], 3.333 µM | 1.05
[10], 10 µM | 0.953
[11], 0.00017 µM | 0.959
[11], 0.00051 µM | 0.98
[11], 0.00152 µM | 0.959
[11], 0.00457 µM | 0.961
[11], 0.01372 µM | 0.923
[11], 0.04115 µM | 0.942
[11], 0.1235 µM | 0.875
[11], 0.3704 µM | 0.857
[11], 1.111 µM | 0.852
[11], 3.333 µM | 0.835
[11], 10 µM | 0.815
[12], 0.00017 µM | 0.992
[12], 0.00051 µM | 0.981
[12], 0.00152 µM | 1.01
[12], 0.00457 µM | 0.982
[12], 0.01372 µM | 1.006
[12], 0.04115 µM | 0.974
[12], 0.1235 µM | 0.919
[12], 0.3704 µM | 0.848
[12], 1.111 µM | 0.55
[12], 3.333 µM | 0.434
[12], 10 µM | 0.357
